Experimental data from the NIST ThermoML archive (doi:10.1016/j.jct.2012.04.005).
± gives the expanded uncertainty stated by the source.

Conditions: isochoric method

## CCOCC [diethyl ether]
466.85 K, Liquid
  mass density: 261.2 ± 5.9 kg/m3
466.87 K, 3577 kPa, Liquid
  mass density: 275.7 ± 2.6 kg/m3
466.88 K, 3561 kPa, Liquid
  mass density: 261.2 ± 2.5 kg/m3
466.88 K, 3641 kPa, Liquid
  mass density: 310.8 ± 2.3 kg/m3
466.89 K, 3586 kPa, Gas
  mass density: 255 ± 2.2 kg/m3
467.09 K, 3625 kPa, Liquid
  mass density: 278.8 ± 2 kg/m3
467.09 K, 3678 kPa, Liquid
  mass density: 310.8 ± 3 kg/m3
467.29 K, 3582 kPa, Liquid
  mass density: 261.2 ± 2.9 kg/m3
467.29 K, 3591 kPa, Gas
  mass density: 233.7 ± 6.2 kg/m3
467.29 K, 3602 kPa, Liquid
  mass density: 275.7 ± 2.9 kg/m3
467.29 K, 3605 kPa, Gas
  mass density: 255 ± 5.5 kg/m3
467.39 K, 3612 kPa, Gas
  mass density: 255 ± 7.1 kg/m3
467.47 K, 3597 kPa, Gas
  mass density: 233.7 ± 4.6 kg/m3
467.49 K, 3648 kPa, Liquid
  mass density: 296.7 ± 2.6 kg/m3
467.5 K, 3591 kPa, Liquid
  mass density: 261.2 ± 2.7 kg/m3
467.57 K, 3699 kPa, Liquid
  mass density: 310.8 ± 1.9 kg/m3
467.62 K, 3606 kPa, Gas
  mass density: 260.7 ± 10 kg/m3
467.69 K, 3637 kPa, Liquid
  mass density: 288.3 ± 1.8 kg/m3
467.96 K, 3736 kPa, Liquid
  mass density: 310.8 ± 1.9 kg/m3
468.29 K, 3629 kPa, Gas
  mass density: 233.7 ± 5 kg/m3
468.29 K, 3662 kPa, Gas
  mass density: 255 ± 2.4 kg/m3
468.39 K, 3632 kPa, Liquid
  mass density: 261.2 ± 2.1 kg/m3
468.52 K, 3635 kPa, Gas
  mass density: 212.6 ± 3.4 kg/m3
468.69 K, 3669 kPa, Gas
  mass density: 260.7 ± 5.4 kg/m3
468.69 K, 3721 kPa, Liquid
  mass density: 278.8 ± 1.9 kg/m3
468.69 K, 3780 kPa, Liquid
  mass density: 310.8 ± 2.3 kg/m3
468.83 K, 3719 kPa, Liquid
  mass density: 278.8 ± 1.5 kg/m3
468.94 K, 3681 kPa, Liquid
  mass density: 275.7 ± 1.4 kg/m3
469.49 K, 3681 kPa, Gas
  mass density: 212.6 ± 7.7 kg/m3
469.89 K, 3738 kPa, Liquid
  mass density: 275.7 ± 0.4 kg/m3
469.89 K, 3776 kPa, Liquid
  mass density: 278.8 ± 1.1 kg/m3
470.22 K, 4019 kPa, Liquid
  mass density: 348.2 ± 1.4 kg/m3
470.71 K, 16287 kPa, Liquid
  mass density: 534.6 ± 0.6 kg/m3
470.75 K, 3929 kPa, Liquid
  mass density: 296.7 ± 1.3 kg/m3
471.09 K, 16390 kPa, Liquid
  mass density: 534.6 ± 0.6 kg/m3
471.25 K, 9234 kPa, Liquid
  mass density: 485.2 ± 0.5 kg/m3
471.29 K, 4110 kPa, Liquid
  mass density: 348.2 ± 1.7 kg/m3
471.59 K, 9306 kPa, Liquid
  mass density: 485.2 ± 0.5 kg/m3
471.69 K, 16551 kPa, Liquid
  mass density: 534.6 ± 0.6 kg/m3
472.29 K, 9719 kPa, Liquid
  mass density: 485.2 ± 0.5 kg/m3
472.58 K, 4780 kPa, Liquid
  mass density: 394.8 ± 0.7 kg/m3
473.16 K, 3968 kPa, Liquid
  mass density: 288.3 ± 0.5 kg/m3
473.49 K, 4095 kPa, Liquid
  mass density: 296.7 ± 1.1 kg/m3
473.49 K, 4886 kPa, Liquid
  mass density: 394.8 ± 0.8 kg/m3
474.18 K, 4037 kPa, Liquid
  mass density: 288.3 ± 0.8 kg/m3
477.4 K, 7063 kPa, Liquid
  mass density: 440.8 ± 0.6 kg/m3
478.46 K, 7226 kPa, Liquid
  mass density: 440.8 ± 0.5 kg/m3
478.97 K, 10850 kPa, Liquid
  mass density: 485.2 ± 0.6 kg/m3
479.25 K, 10911 kPa, Liquid
  mass density: 485.2 ± 0.6 kg/m3
479.29 K, 4255 kPa, Liquid
  mass density: 261.2 ± 1.1 kg/m3
479.79 K, 4580 kPa, Liquid
  mass density: 310.8 ± 0.7 kg/m3
480.04 K, 11078 kPa, Liquid
  mass density: 485.2 ± 0.5 kg/m3
480.08 K, 4398 kPa, Liquid
  mass density: 288.3 ± 0.5 kg/m3
480.2 K, 11129 kPa, Liquid
  mass density: 485.2 ± 0.5 kg/m3
480.44 K, 4322 kPa, Liquid
  mass density: 296.7 ± 1.3 kg/m3
480.44 K, 11179 kPa, Liquid
  mass density: 485.2 ± 0.5 kg/m3
480.83 K, 4665 kPa, Liquid
  mass density: 310.8 ± 0.7 kg/m3
481.03 K, 4460 kPa, Liquid
  mass density: 288.3 ± 0.6 kg/m3
481.43 K, 11386 kPa, Liquid
  mass density: 485.2 ± 0.5 kg/m3
487.13 K, 6550 kPa, Liquid
  mass density: 394.8 ± 0.5 kg/m3
488.12 K, 6673 kPa, Liquid
  mass density: 394.8 ± 0.5 kg/m3
490.82 K, 9157 kPa, Liquid
  mass density: 440.8 ± 0.5 kg/m3
491.84 K, 9329 kPa, Liquid
  mass density: 440.8 ± 0.5 kg/m3
492.58 K, 13642 kPa, Liquid
  mass density: 485.2 ± 0.5 kg/m3
492.82 K, 13695 kPa, Liquid
  mass density: 485.2 ± 0.5 kg/m3
493.6 K, 13857 kPa, Liquid
  mass density: 485.2 ± 0.5 kg/m3
499.04 K, 6021 kPa, Liquid
  mass density: 310.8 ± 0.4 kg/m3
499.15 K, 8032 kPa, Liquid
  mass density: 394.8 ± 0.5 kg/m3
500.02 K, 6096 kPa, Liquid
  mass density: 310.8 ± 0.5 kg/m3
500.21 K, 8166 kPa, Liquid
  mass density: 394.8 ± 0.5 kg/m3
504.02 K, 15987 kPa, Liquid
  mass density: 485.2 ± 0.5 kg/m3
504.28 K, 16044 kPa, Liquid
  mass density: 485.2 ± 0.5 kg/m3
505.05 K, 16203 kPa, Liquid
  mass density: 485.2 ± 0.5 kg/m3
517.61 K, 10294 kPa, Liquid
  mass density: 394.8 ± 0.5 kg/m3
518.47 K, 10403 kPa, Liquid
  mass density: 394.8 ± 0.5 kg/m3
533.2 K, 12288 kPa, Liquid
  mass density: 394.8 ± 0.4 kg/m3
534.36 K, 12440 kPa, Liquid
  mass density: 394.8 ± 0.4 kg/m3
554.38 K, 14968 kPa, Liquid
  mass density: 394.8 ± 0.4 kg/m3
555.38 K, 15098 kPa, Liquid
  mass density: 394.8 ± 0.4 kg/m3
574.32 K, 17455 kPa, Liquid
  mass density: 394.8 ± 0.5 kg/m3
575.32 K, 17595 kPa, Liquid
  mass density: 394.8 ± 0.5 kg/m3
